Source: the CheMixHub viscosity set
Several values for one entry are separate records, joined by “and”; a condition that tells them apart may be missing. Equal values may be shown once.

Test: xn = mol fraction of the nth substance listed

CS(C)=O + O
viscosity
Conditions | 293.15 K | 298.15 K
101 kPa, x1 = 0.01 | 1.11 mPa·s | –
101 kPa, x1 = 0.01869 | – | 1.01 mPa·s
101 kPa, x1 = 0.025 | 1.23 mPa·s | –
101 kPa, x1 = 0.039 | 1.38 mPa·s | –
101 kPa, x1 = 0.0406 | – | 1.19 mPa·s
101 kPa, x1 = 0.05 | 1.502 mPa·s | 1.318 mPa·s
101 kPa, x1 = 0.055 | 1.55 mPa·s | –
101 kPa, x1 = 0.06619 | – | 1.44 mPa·s
101 kPa, x1 = 0.071 | 1.74 mPa·s | –
101 kPa, x1 = 0.09 | 1.97 mPa·s | –
101 kPa, x1 = 0.11 | 2.23 mPa·s | –
101 kPa, x1 = 0.13 | 2.54 mPa·s | –
101 kPa, x1 = 0.15 | 2.815 mPa·s | 2.438 mPa·s
101 kPa, x1 = 0.16 | 2.9 mPa·s | –
101 kPa, x1 = 0.19 | 3.28 mPa·s | –
101 kPa, x1 = 0.2 | – | 3.156 mPa·s
101 kPa, x1 = 0.22 | 3.68 mPa·s | –
101 kPa, x1 = 0.25 | 4.042 mPa·s | 3.4 mPa·s
101 kPa, x1 = 0.26 | 4.02 mPa·s | –
101 kPa, x1 = 0.3 | 4.26 mPa·s | –
101 kPa, x1 = 0.35 | 4.375 mPa·s and 4.4 mPa·s | 3.763 mPa·s
101 kPa, x1 = 0.4 | – | 3.799 mPa·s
101 kPa, x1 = 0.41 | 4.29 mPa·s | –
101 kPa, x1 = 0.48 | 3.913 mPa·s and 3.97 mPa·s | 3.395 mPa·s and 3.446 mPa·s
101 kPa, x1 = 0.57 | 3.54 mPa·s | –
101 kPa, x1 = 0.6 | – | 3.008 mPa·s
101 kPa, x1 = 0.67 | 3.08 mPa·s | –
101 kPa, x1 = 0.73 | 2.9 mPa·s | 2.507 mPa·s
101 kPa, x1 = 0.8 | – | 2.375 mPa·s
101 kPa, x1 = 0.81 | 2.62 mPa·s | –
101 kPa, x2 = 0.047 | – | 2.054 mPa·s
101 kPa, x2 = 0.089 | – | 2.118 mPa·s
101 kPa, x2 = 0.186 | – | 2.298 mPa·s
101 kPa, x2 = 0.2 | – | 2.3 mPa·s
101 kPa, x2 = 0.3 | – | 2.7 mPa·s
101 kPa, x2 = 0.335 | – | 2.708 mPa·s
101 kPa, x2 = 0.522 | – | 3.449 mPa·s
101 kPa, x2 = 0.59 | – | 3.676 mPa·s
101 kPa, x2 = 0.651 | – | 3.764 mPa·s
101 kPa, x2 = 0.702 | – | 3.674 mPa·s
101 kPa, x2 = 0.743 | – | 3.467 mPa·s
101 kPa, x2 = 0.812 | – | 2.854 mPa·s
101 kPa, x2 = 0.867 | – | 2.232 mPa·s
101 kPa, x2 = 0.91 | – | 1.748 mPa·s
101 kPa, x2 = 0.945 | – | 1.382 mPa·s
101 kPa, x2 = 0.975 | – | 1.11 mPa·s
101.3 kPa, x1 = 0.012 | 1.112 mPa·s | 0.986 mPa·s
101.3 kPa, x2 = 0.1906 | 2.569 mPa·s | 2.299 mPa·s
101.3 kPa, x2 = 0.3252 | 2.966 mPa·s | 2.63 mPa·s
101.3 kPa, x2 = 0.5203 | 3.891 mPa·s | 3.38 mPa·s
101.3 kPa, x2 = 0.6501 | 4.352 mPa·s | 3.727 mPa·s
101.3 kPa, x2 = 0.743 | 3.998 mPa·s | 3.414 mPa·s
101.3 kPa, x2 = 0.8183 | 3.231 mPa·s | 2.773 mPa·s
101.3 kPa, x2 = 0.8668 | 2.57 mPa·s | –
101.3 kPa, x2 = 0.9101 | 2.008 mPa·s | 1.747 mPa·s
101.3 kPa, x2 = 0.9455 | 1.575 mPa·s | 1.383 mPa·s
101.3 kPa, x2 = 0.9751 | 1.247 mPa·s | 1.101 mPa·s
101.33 kPa, x1 = 0.00588 | 1.053 mPa·s | –
101.33 kPa, x1 = 0.012 | 1.112 mPa·s | –
101.33 kPa, x1 = 0.02498 | 1.264 mPa·s | –
101.33 kPa, x1 = 0.03901 | 1.402 mPa·s | –
101.33 kPa, x1 = 0.04864 | 1.515 mPa·s | –
101.33 kPa, x1 = 0.0545 | 1.559 mPa·s | –
101.33 kPa, x1 = 0.08993 | 2.009 mPa·s | –
101.33 kPa, x1 = 0.1332 | 2.589 mPa·s | –
101.33 kPa, x1 = 0.1469 | 2.743 mPa·s | –
101.33 kPa, x1 = 0.1874 | 3.319 mPa·s | –
101.33 kPa, x1 = 0.2998 | 4.296 mPa·s | –
101.33 kPa, x1 = 0.3498 | 4.385 mPa·s | –
101.33 kPa, x1 = 0.4498 | 4.091 mPa·s | –
101.33 kPa, x1 = 0.5665 | 3.498 mPa·s | –
101.33 kPa, x1 = 0.651 | 3.211 mPa·s | –
101.33 kPa, x1 = 0.7539 | 2.743 mPa·s | –
101.33 kPa, x1 = 0.847 | 2.514 mPa·s | –
101.33 kPa, x2 = 0.2097 | – | 2.291 mPa·s
101.33 kPa, x2 = 0.3132 | – | 2.568 mPa·s
101.33 kPa, x2 = 0.409 | – | 2.909 mPa·s
101.33 kPa, x2 = 0.503 | – | 3.197 mPa·s
101.33 kPa, x2 = 0.7032 | – | 3.569 mPa·s
101.33 kPa, x2 = 0.8053 | – | 2.858 mPa·s
101.33 kPa, x2 = 0.9021 | – | 1.787 mPa·s
